Tested on: TKp53^L/Lp16^L/L melanoma cells
Assay: in vitro scratch (wound healing) assay with dasatinib
Type: cell-based, murine
Settings: 30 nM dasatinib, 12 hours after wounding
Procedure: FIG. 4C is a bar graph of closure index for TKp53^L/Lp16^L/L melanoma cells with LKB1 knockdown treated with vehicle (shLkb1+DMSO) or 30 nM dasatinib (shLkb1+Dasatinib) and for TKp53^L/Lp16^L/L melanoma cells without Lkb1 knockdown treated with vehicle (NS+DMSO) or 30 nM dasatinib (NS+Dasatinib). Closure index was measured 12 hours after wounding. The asterisks indicate a significant difference (P<0.05).
The in vitro scratch (wound healing) assay was performed as described previously. See Carretero et al., 2010. Briefly, a 1 mm wide scratch was made on a confluent monolayer, and cells were then allowed to grow under standard conditions for 12 hours. The migrated distance was quantified using Image J™ software. “Close Index” was determined as 1-f, where f is calculated as the remaining gap area divided by the starting scratched area. Cell invasion was measured using matrigel invasion assay using invasion chambers obtained from BD Biosciences (San Jose, Calif., United States of America), with assays performed according to the manufacturer's instructions. Cells of the indicated genotypes (2.5×10^4) were added to the upper chamber in 500 uL of serum-free medium, and the lower chamber was filled with 750 uL of medium containing 10% fetal bovine serum (FBS) as an attractant. After 24 hours of incubation, cells on the underside of the filter were fixed, stained and counted. […]

Compound: Cc1nc(Nc2ncc(C(=O)Nc3c(C)cccc3Cl)s2)cc(N2CCN(CCO)CC2)n1 [dasatinib]
- decrease in cell migration (closure index) (Lkb-intact melanoma cells (NS)): 14%
- decrease in cell migration (closure index) (melanoma cells with Lkb1 knockdown (shLkb1)): 27%
